Data published in US12076399B2, “Combination therapies for treating cancers” (Cothera Bioscience, Inc., priority 2017, dated 2024).

Experiments:
Assay in all cases: Ex vivo drug sensitivity test (EdU proliferation, EpCAM+ cells, high-content imaging) on conditionally reprogrammed patient-derived tumor cells
Assay type in all cases: cell-based, human
[1] = system: patient-derived epithelial tumor cells, colon; conditions: EpCAM and Edu positive readout, AUC concentration
Source text: (§1) Surgical specimen from colorectal cancer patients, liver cancer patients, lung cancer patients, pancreatic cancer, gastric cancer patients and breast cancer patients were obtained from the Beijing Cancer Hospital and the Cancer Hospital of Chinese Academy of Medical Science after receiving patient consensus. Patient-derived xenograft tumor specimens were obtained from Nod/SCID mice inoculated with surgical tumor specimen from patients.
(§2) For ex vivo drug sensitivity assays, the tumor cells were isolated from the patient tissue sample or PDX xenograft tumor tissue. Briefly, the tumor tissues were cut into small pieces less than 1 mm in diameter using scissors. The tumor fragments were transferred into a sterile 100-ml triangle glass flask loaded with a magnet stir bar. A 10-15 ml digestion media containing 0.25 U/ml Liberase DH was added into the minced tumor tissues to start enzyme digestion. The enzyme mixture was incubated at 37° C. for 1-2 hours with moderate stirring. The digested tumor tissue was filtered through a 100-μm cell retainer. The filtrates were re-filtered through a 40-μm cell restrainer. The tumor cell clusters retained on the 40-μm cell restrainer was collected, wash twice with HBSS, then re-suspended in a defined growth media supplemented with several stem cell growth factors.
(§3) The tumor cell clusters retained on the 40-μm cell restrainer were collected, wash twice with HBSS, then re-suspended in a defined growth media supplemented with cell growth factors and small molecule inhibitors. The tumor cell clusters were recovered in a defined growth medium overnight. The defined growth medium was StemPro® hESC SFM (defined, serum- and feeder-free medium (SFM)) supplemented with: Nicotinamide, Wnt3A, Noggin (Bone Morphogenetic Protein (BMP) inhibitor), R-spondin-1 (Wnt/β-catenin signaling agonist), and Y27632 (Rho-associated, coiled-coil containing protein kinase (ROCK-1) inhibitor).
(§4) For conditional reprogramming, the recovered CTOSs were dissociated into single cells and seeded in a feeder cell/Rock inhibitor (Y27632) co-culture system at about 3000 cells per well in cell culture plate, and grow at 37 C for 3 days.
(§5) For ex vivo drug testing, the seeded tumor cells were exposed to seven EGFR inhibitors, three MEK 1/2 inhibitors, and three CDK 4/6 inhibitors alone, or a combination of EGFR inhibitor and MEK 1/2 inhibitor, a combination of EGFR inhibitor and CDK 4/6 inhibitor, a combination of MEK 1/2 inhibitor and CDK 4/6 inhibitor, and a triple combination of EGFR inhibitor, MEK 1/2 inhibitor, and a CDK 4/6 inhibitor for 72 hours. The treated tumor cells were re-exposed to the same drug or drug combination with a fresh media change for another 72 hours. All drugs were prepared in DMSO and the final concentration of DMSO in media was 0.1%. The tested concentration of the drug and drug combinations were at relevant AUC concentration (see Table E1).
(§6) Following exposure with drug, the epithelial tumor cells were labeled with 5-ethynyl-2′-deoxyuridine (Edu) to assess the tumor cell proliferation rates. The labeling lasted 24 hours in the presence of drug exposure. In the control group, epithelial tumor cells received no drug exposure with media change, but were similarly labeled with Edu. The labeled tumor cell were fixed and stained with Hoechst 33342 in blocking buffer containing 0.5% Triton X-100 and 3% BSA overnight at 4° C. The tumor cells were incubated with EpCAM antibody (1:4000) for 2 hours at room temperature and rinsed with PBST. Subsequently, the tumor cells were incubated with Alexa FluorR 647 conjugated goat-anti-mouse secondary antibody for 30 minutes at room temperature and rinsed with PBST.
(§7) The incorporated Edu was detected by Click-iT reaction where fixed cells were incubated with a reaction mixture containing 1× Click-iT Edu reaction buffer, CuSO4, and azide-conjugated Alexa Fluor dye in the dark. The stained cells were washed with PBS two times before image acquisition and analysis. […]

[2] = system: patient-derived epithelial tumor cells, gastric; conditions: EpCAM and Edu positive readout, AUC concentration
Source text: as §1, §2, §3, §4, §5, §6, §7

[3] = system: patient-derived epithelial tumor cells, pancrea; conditions: patient ZKB-011, pancrea; EpCAM and Edu positive readout; AUC concentration
Source text: as §1, §2, §3, §4, §5, §6, §7

Row | SMILES | Inhibition percentage ([1]; patient NYL-040, colon) [%] | MI (Maximum Inhibition Index) ([1]; patient NYL-040, colon) | Inhibition percentage ([1]; patient NYL-053, colon) [%] | MI (Maximum Inhibition Index) ([1]; patient NYL-053, colon) | Inhibition percentage ([1]; patient NYL-109, colon) [%] | MI (Maximum Inhibition Index) ([1]; patient NYL-109, colon) | Inhibition percentage ([1]; patient NYL-113, colon) [%] | MI (Maximum Inhibition Index) ([1]; patient NYL-113, colon) | Inhibition percentage ([1]; patient NYL-132, colon) [%] | MI (Maximum Inhibition Index) ([1]; patient NYL-132, colon) | Inhibition percentage ([1]; patient NYL-149, colon) [%] | MI (Maximum Inhibition Index) ([1]; patient NYL-149, colon) | Inhibition percentage ([1]; patient NYL-161, colon) [%] | MI (Maximum Inhibition Index) ([1]; patient NYL-161, colon) | Inhibition percentage ([1]; patient NYL-170, colon) [%] | MI (Maximum Inhibition Index) ([1]; patient NYL-170, colon) | Inhibition percentage ([1]; patient NYL-HZ-002, colon) [%] | MI (Maximum Inhibition Index) ([1]; patient NYL-HZ-002, colon) | Inhibition percentage ([1]; patient ZKB-007, colon) [%] | MI (Maximum Inhibition Index) ([1]; patient ZKB-007, colon) | also measured
1 | CC(C)(C)c1nc(-c2cccc(NS(=O)(=O)c3c(F)cccc3F)c2F)c(-c2ccnc(N)n2)s1 [D, Dabrafenib] | 7.18 | 1.08 | 9.11 | 1.10 | 34.25 | 1.52 | −3.84 | 0.96 | 29.59 | 1.42 | 75.06 | 4.01 | −6.33 | 0.94 | 52.58 | 2.11 | 0.00 | 0.83 | 0.00 | 0.91 | Inhibition percentage ([1]; patient ZKB-070, colon): 15.53%; MI (Maximum Inhibition Index) ([1]; patient ZKB-070, colon): 1.18; Inhibition percentage ([1]; patient ZKB-171, colon): 15.07%; MI (Maximum Inhibition Index) ([1]; patient ZKB-171, colon): 1.18; Inhibition percentage ([2]; patient NYP-006, gastric): 0.00%; MI (Maximum Inhibition Index) ([2]; patient NYP-006, gastric): 0.47; Inhibition percentage ([2]; patient ZKB-165, gastric): 45.31%; MI (Maximum Inhibition Index) ([2]; patient ZKB-165, gastric): 1.83; Inhibition percentage [3]: 0.00%; MI (Maximum Inhibition Index) [3]: 1.00
2 | CC(=O)c1c(C)c2cnc(Nc3ccc(N4CCNCC4)cn3)nc2n(C2CCCC2)c1=O [P, Palbociclib] | 85.02 | 6.68 | 63.04 | 2.71 | 40.42 | 1.68 | 44.25 | 1.79 | 48.53 | 1.94 | 57.40 | 2.35 | 26.16 | 1.35 | 67.64 | 3.09 | 52.48 | 2.10 | 66.72 | 3.00 | Inhibition percentage ([1]; patient CKY-041, colon): 9.05%; MI (Maximum Inhibition Index) ([1]; patient CKY-041, colon): 1.10; Inhibition percentage ([1]; patient ZKB-070, colon): 77.00%; MI (Maximum Inhibition Index) ([1]; patient ZKB-070, colon): 4.35; Inhibition percentage ([1]; patient ZKB-171, colon): 30.13%; MI (Maximum Inhibition Index) ([1]; patient ZKB-171, colon): 1.43; Inhibition percentage ([2]; patient NYP-006, gastric): 65.36%; MI (Maximum Inhibition Index) ([2]; patient NYP-006, gastric): 2.89; Inhibition percentage ([2]; patient ZKB-165, gastric): 86.45%; MI (Maximum Inhibition Index) ([2]; patient ZKB-165, gastric): 7.38; Inhibition percentage [3]: 85.40%; MI (Maximum Inhibition Index) [3]: 6.85
3 | CC(=O)Nc1cccc(-n2c(=O)n(C3CC3)c(=O)c3c(Nc4ccc(I)cc4F)n(C)c(=O)c(C)c32)c1 [T, Trametinib] | 0.00 | 0.85 | 49.02 | 1.96 | 86.79 | 7.57 | 46.31 | 1.86 | 29.60 | 1.42 | 75.78 | 4.13 | 0.59 | 1.01 | 0.00 | 0.61 | 51.53 | 2.06 | 0.00 | 0.76 | Inhibition percentage ([1]; patient CKY-041, colon): 5.05%; MI (Maximum Inhibition Index) ([1]; patient CKY-041, colon): 1.05; Inhibition percentage ([1]; patient ZKB-070, colon): −34.50%; MI (Maximum Inhibition Index) ([1]; patient ZKB-070, colon): 0.74; Inhibition percentage ([1]; patient ZKB-171, colon): 46.02%; MI (Maximum Inhibition Index) ([1]; patient ZKB-171, colon): 1.85; Inhibition percentage ([2]; patient NYP-006, gastric): 0.00%; MI (Maximum Inhibition Index) ([2]; patient NYP-006, gastric): 0.55; Inhibition percentage ([2]; patient ZKB-165, gastric): 0.00%; MI (Maximum Inhibition Index) ([2]; patient ZKB-165, gastric): 0.60; Inhibition percentage [3]: 7.36%; MI (Maximum Inhibition Index) [3]: 1.08
